Assay results from US20190166843A1, “Pesticidal Active Mixtures Comprising Isoxazoline Compounds I” (BASF SE, priority 2008, published 2019).

Key:
[1] = system: Boll Weevil (Anthonomus grandis); experiment: Test B.2 Control of boll weevil, insect diet with eggs, 24-well plates; format: in vivo; conditions: 5 days
Text: (§1) Synergism can be described as an interaction where the combined effect of two or more compounds is greater than the sum of the individual effects of each of the compounds. The presence of a synergistic effect in terms of percent control, between two mixing partners (X and Y) can be calculated using the Colby equation (Colby, S. R., 1967, Calculating Synergistic and Antagonistic Responses in Herbicide Combinations, Weeds, 15, 20-22):
(§2) When the observed combined control effect is greater than the expected combined control effect (E), then the combined effect is synergistic.
For evaluating control of boll weevil (Anthonomus grandis) the test unit consisted of 24-well-microtiter plates containing an insect diet and 20-30 A. grandis eggs. The compounds or mixtures were formulated using a solution containing 75 wt % water and 25 wt % DMSO. Different concentrations of formulated compounds or mixtures were sprayed onto the insect diet at 20 μl, using a custom built micro atomizer, at two replications.
For experimental mixtures in these tests identical volumes of both mixing partners at the desired concentrations respectively, were mixed together.
After application, microtiter plates were incubated at 23±1° C., 50±5% RH for 5 days. Egg and larval mortality was then visually assessed.

[2] = system: Green Peach Aphid (Myzus persicae); experiment: Test B.1 Control of green peach aphid through systemic means, artificial diet under membrane, 96-well plates; format: in vivo; conditions: 3 days
Text: as §1, §2
For evaluating control of green peach aphid (Myzus persicae) through systemic means the test unit consisted of 96-well-microtiter plates containing liquid artificial diet under an artificial membrane.
The compounds or mixtures were formulated using a solution containing 75 wt % water and 25 wt % DMSO. Different concentrations of formulated compounds or mixtures were pipetted into the aphid diet, using a custom built pipetter, at two replications. For experimental mixtures in these tests identical volumes of both mixing partners at the desired concentrations respectively, were mixed together.
After application, 5-8 adult aphids were placed on the artificial membrane inside the microtiter plate wells. The aphids were then allowed to suck on the treated aphid diet and incubated at 23±1° C., 50+5% RH for 3 days. Aphid mortality and fecundity was then visually assessed.

[3] = C.I.240 alone at 0.08 ppm (0 + 0.08)
[4] = compound II alone at 0.4 ppm (0.4 + 0)

For `CC1(C)C(C=C(Cl)Cl)C1C(=O)OC(C#N)c1cccc(Oc2ccccc2)c1` (stereo not drawn) [Alpha-Cypermethrin, alpha-cypermethrin], the “Average Control %” value ([1]; compound II alone at 0.08 ppm (0.08 + 0)) was 0%.

`Cc1cc(C2=NOC(c3cc(Cl)cc(Cl)c3)(C(F)(F)F)C2)ccc1C(=O)NCC(=O)NCC(F)(F)F` (stereo not drawn) [C.I.240] was tested, and the “Average Control %” value [1, 3] was 0%, the “Average Control %” value ([1]; C.I.240 alone at 0.4 ppm (0 + 0.4)) was 50% and the “Average Control %” value [2, 3] was 0%. The “Average Control %” value ([2]; C.I.240 alone at 2 ppm (0 + 2)) was 0%.

For `N#CCNC(=O)c1cnccc1C(F)(F)F` [Flonicamid, flonicamid], the “Average Control %” value ([1]; compound II alone at 4 ppm (4 + 0)) was 0%.

With `O=[N+]([O-])NC1=NCCN1Cc1ccc(Cl)nc1` [Imidacloprid, imidacloprid] the “Average Control %” value [2, 4] was 0%.

With `CN1COCN(Cc2cnc(Cl)s2)/C1=N\[N+](=O)[O-]` [Thiamethoxam, thiamethoxam] the “Average Control %” value [2, 4] was 25%.

In the case of abamectin, the “Average Control %” value ([1]; compound II alone at 0.016 ppm (0.016 + 0)) is reported as 50%.
